Results taken from patent US20220281848A1, “PYRAZOLE-SUBSTITUTED PYRROLIDINONES AS HERBICIDES” (FMC Corporation, priority 2019, published 2022).

Assays:
Type in all cases: in vivo
Settings in all cases: 19 to 21 days
[1] = system: soybean (Glycine max); assay: Test C preemergence, soybean
Source text: (§1) Seeds of plant species selected from corn (Zea mays), soybean (Glycine max), velvetleaf (Abutilon theophrasti), palmer pigweed (Amaranthus palmeri), waterhemp (common waterhemp, Amaranthus rudis), surinam grass (Brachiaria decumbens), large (Lg) crabgrass (Digitaria sanguinalis), fall panicum (Panicum dichotomiflorum), giant foxtail (Setaria faberi), ragweed (common ragweed, Ambrosia elatior), barnyardgrass (Echinochloa crus-galli), E. Black Nightshade (Solanum ptycanthum), and horseweed (Conyza canadensis), were planted into a silt loam soil and treated preemergence with test chemicals formulated in a non-phytotoxic solvent mixture which included a surfactant.
(§2) Treated plants and controls were maintained in a greenhouse for 19 to 21 days, after which time all species were compared to controls and visually evaluated. Plant response ratings, summarized in Table C, are based on a scale of 0 to 100 where 0 is no effect and 100 is complete control.

[2] = system: barnyardgrass (Echinochloa crus-galli); assay: Test C preemergence, barnyardgrass
Source text: as §1, §2

[3] = system: surinam grass (Brachiaria decumbens); assay: Test B preemergence, surinam grass
Source text: (§3) Seeds of plant species selected from blackgrass (Alopecurus myosuroides), Italian ryegrass (Lolium multiflorum), wheat, winter (winter wheat, Triticum aestivum), corn (Zea mays), large (Lg) crabgrass (Digitaria sanguinalis), giant foxtail (Setaria faberi), johnsongrass (Sorghum halepense), ragweed (common ragweed, Ambrosia elatior), soybean (Glycine max), barnyardgrass (Echinochloa crus-galli), waterhemp (common waterhemp, Amaranthus rudis), palmer pigweed (Amaranthus palmeri), and surinam grass (Brachiaria decumbens), were planted into a silt loam soil and treated preemergence with test chemicals formulated in a non-phytotoxic solvent mixture which included a surfactant.
(§4) Treated plants and controls were maintained in a greenhouse for 19 to 21 days, after which time all species were compared to controls and visually evaluated. Plant response ratings, summarized in Table B, are based on a scale of 0 to 100 where 0 is no effect and 100 is complete control.

[4] = system: waterhemp (common waterhemp, Amaranthus rudis); assay: Test B preemergence, waterhemp
Source text: as §3, §4

[5] = system: blackgrass (Alopecurus myosuroides); assay: Test B preemergence, blackgrass
Source text: as §3, §4

[6] = system: palmer pigweed (Amaranthus palmeri); assay: Test B preemergence, palmer pigweed
Source text: as §3, §4

[7] = system: giant foxtail (Setaria faberi); assay: Test B preemergence, giant foxtail
Source text: as §3, §4

[8] = system: fall panicum (Panicum dichotomiflorum); assay: Test C preemergence, fall panicum
Source text: as §1, §2

[9] = system: large (Lg) crabgrass (Digitaria sanguinalis); assay: Test C preemergence, large crabgrass
Source text: as §1, §2

[10] = system: barnyardgrass (Echinochloa crus-galli); assay: Test B preemergence, barnyardgrass
Source text: as §3, §4

[11] = system: ragweed (common ragweed, Ambrosia elatior); assay: Test C preemergence, ragweed
Source text: as §1, §2

[12] = system: corn (Zea mays); assay: Test C preemergence, corn
Source text: as §1, §2

[13] = system: giant foxtail (Setaria faberi); assay: Test C preemergence, giant foxtail
Source text: as §1, §2

[14] = system: waterhemp (common waterhemp, Amaranthus rudis); assay: Test C preemergence, waterhemp
Source text: as §1, §2

[15] = system: wheat, winter (winter wheat, Triticum aestivum); assay: Test B preemergence, wheat, winter
Source text: as §3, §4

[16] = system: surinam grass (Brachiaria decumbens); assay: Test C preemergence, surinam grass
Source text: as §1, §2

[17] = system: horseweed (Conyza canadensis); assay: Test C preemergence, horseweed
Source text: as §1, §2

[18] = system: E. Black Nightshade (Solanum ptycanthum); assay: Test C preemergence, E. Black Nightshade
Source text: as §1, §2

Structure (SMILES): CN1C[C@H](c2cc(C(F)(F)F)n(C)n2)[C@@H](C(=O)Nc2cccc(F)c2F)C1=O [Compound 13, (3S,4R)—N-(2,3-difluorophenyl)-1-methyl-4-[1-methyl-5-(trifluoromethyl)-1H-pyrazol-3-yl]-2-oxo-3-pyrrolidinecarboxamide]
- Plant response rating (0 no effect, 100 complete control) Soybean ([1]; 4 g ai/ha Preemergence): 0
- Plant response rating (0 no effect, 100 complete control) Soybean ([1]; 8 g ai/ha Preemergence): 0
- Plant response rating (0 no effect, 100 complete control) Soybean ([1]; 16 g ai/ha Preemergence): 0
- Plant response rating (0 no effect, 100 complete control) Soybean ([1]; 31 g ai/ha Preemergence): 0
- Plant response rating (0 no effect, 100 complete control) Soybean ([1]; 62 g ai/ha Preemergence): 0
- Plant response rating (0 no effect, 100 complete control) Soybean ([1]; 125 g ai/ha Preemergence): 0
- Plant response rating (0 no effect, 100 complete control) Barnyardgrass ([2]; 4 g ai/ha Preemergence): 0
- Plant response rating (0 no effect, 100 complete control) Barnyardgrass ([2]; 8 g ai/ha Preemergence): 28
- Plant response rating (0 no effect, 100 complete control) Barnyardgrass ([2]; 16 g ai/ha Preemergence): 63
- Plant response rating (0 no effect, 100 complete control) Barnyardgrass ([2]; 31 g ai/ha Preemergence): 68
- Plant response rating (0 no effect, 100 complete control) Barnyardgrass ([2]; 62 g ai/ha Preemergence): 97
- Plant response rating (0 no effect, 100 complete control) Barnyardgrass ([2]; 125 g ai/ha Preemergence): 97
- Plant response rating (0 no effect, 100 complete control) Surinam Grass ([3]; 16 g ai/ha Preemergence): 65
- Plant response rating (0 no effect, 100 complete control) Surinam Grass ([3]; 31 g ai/ha Preemergence): 78
- Plant response rating (0 no effect, 100 complete control) Surinam Grass ([3]; 62 g ai/ha Preemergence): 95
- Plant response rating (0 no effect, 100 complete control) Surinam Grass ([3]; 125 g ai/ha Preemergence): 93
- Plant response rating (0 no effect, 100 complete control) Waterhemp ([4]; 16 g ai/ha Preemergence): 0
- Plant response rating (0 no effect, 100 complete control) Waterhemp ([4]; 31 g ai/ha Preemergence): 0
- Plant response rating (0 no effect, 100 complete control) Waterhemp ([4]; 62 g ai/ha Preemergence): 0
- Plant response rating (0 no effect, 100 complete control) Waterhemp ([4]; 125 g ai/ha Preemergence): 15
- Plant response rating (0 no effect, 100 complete control) Blackgrass ([5]; 16 g ai/ha Preemergence): 0
- Plant response rating (0 no effect, 100 complete control) Blackgrass ([5]; 31 g ai/ha Preemergence): 0
- Plant response rating (0 no effect, 100 complete control) Blackgrass ([5]; 62 g ai/ha Preemergence): 13
- Plant response rating (0 no effect, 100 complete control) Blackgrass ([5]; 125 g ai/ha Preemergence): 18
- Plant response rating (0 no effect, 100 complete control) Pigweed, Palmer ([6]; 16 g ai/ha Preemergence): 0
- Plant response rating (0 no effect, 100 complete control) Pigweed, Palmer ([6]; 31 g ai/ha Preemergence): 0
- Plant response rating (0 no effect, 100 complete control) Pigweed, Palmer ([6]; 62 g ai/ha Preemergence): 0
- Plant response rating (0 no effect, 100 complete control) Pigweed, Palmer ([6]; 125 g ai/ha Preemergence): 0
- Plant response rating (0 no effect, 100 complete control) Foxtail, Giant ([7]; 16 g ai/ha Preemergence): 90
- Plant response rating (0 no effect, 100 complete control) Foxtail, Giant ([7]; 31 g ai/ha Preemergence): 95
- Plant response rating (0 no effect, 100 complete control) Foxtail, Giant ([7]; 62 g ai/ha Preemergence): 98
- Plant response rating (0 no effect, 100 complete control) Foxtail, Giant ([7]; 125 g ai/ha Preemergence): 98
- Plant response rating (0 no effect, 100 complete control) Panicum ([8]; 4 g ai/ha Preemergence): 0
- Plant response rating (0 no effect, 100 complete control) Panicum ([8]; 8 g ai/ha Preemergence): 0
- Plant response rating (0 no effect, 100 complete control) Panicum ([8]; 16 g ai/ha Preemergence): 0
- Plant response rating (0 no effect, 100 complete control) Panicum ([8]; 31 g ai/ha Preemergence): 0
- Plant response rating (0 no effect, 100 complete control) Panicum ([8]; 62 g ai/ha Preemergence): 53
- Plant response rating (0 no effect, 100 complete control) Panicum ([8]; 125 g ai/ha Preemergence): 48
- Plant response rating (0 no effect, 100 complete control) Crabgrass, Large ([9]; 4 g ai/ha Preemergence): 70
- Plant response rating (0 no effect, 100 complete control) Crabgrass, Large ([9]; 8 g ai/ha Preemergence): 89
- Plant response rating (0 no effect, 100 complete control) Crabgrass, Large ([9]; 16 g ai/ha Preemergence): 98
- Plant response rating (0 no effect, 100 complete control) Crabgrass, Large ([9]; 31 g ai/ha Preemergence): 98
- Plant response rating (0 no effect, 100 complete control) Crabgrass, Large ([9]; 62 g ai/ha Preemergence): 98
- Plant response rating (0 no effect, 100 complete control) Crabgrass, Large ([9]; 125 g ai/ha Preemergence): 98
- Plant response rating (0 no effect, 100 complete control) Barnyardgrass ([10]; 16 g ai/ha Preemergence): 85
- Plant response rating (0 no effect, 100 complete control) Barnyardgrass ([10]; 31 g ai/ha Preemergence): 95
- Plant response rating (0 no effect, 100 complete control) Barnyardgrass ([10]; 62 g ai/ha Preemergence): 95
- Plant response rating (0 no effect, 100 complete control) Barnyardgrass ([10]; 125 g ai/ha Preemergence): 97
- Plant response rating (0 no effect, 100 complete control) Ragweed ([11]; 4 g ai/ha Preemergence): 0
- Plant response rating (0 no effect, 100 complete control) Ragweed ([11]; 8 g ai/ha Preemergence): 0
- Plant response rating (0 no effect, 100 complete control) Ragweed ([11]; 16 g ai/ha Preemergence): 0
- Plant response rating (0 no effect, 100 complete control) Ragweed ([11]; 31 g ai/ha Preemergence): 0
- Plant response rating (0 no effect, 100 complete control) Ragweed ([11]; 62 g ai/ha Preemergence): 0
- Plant response rating (0 no effect, 100 complete control) Ragweed ([11]; 125 g ai/ha Preemergence): 0
- Plant response rating (0 no effect, 100 complete control) Corn ([12]; 4 g ai/ha Preemergence): 0
- Plant response rating (0 no effect, 100 complete control) Corn ([12]; 8 g ai/ha Preemergence): 0
- Plant response rating (0 no effect, 100 complete control) Corn ([12]; 16 g ai/ha Preemergence): 0
- Plant response rating (0 no effect, 100 complete control) Corn ([12]; 31 g ai/ha Preemergence): 0
- Plant response rating (0 no effect, 100 complete control) Corn ([12]; 62 g ai/ha Preemergence): 0
- Plant response rating (0 no effect, 100 complete control) Corn ([12]; 125 g ai/ha Preemergence): 15
- Plant response rating (0 no effect, 100 complete control) Foxtail, Giant ([13]; 4 g ai/ha Preemergence): 0
- Plant response rating (0 no effect, 100 complete control) Foxtail, Giant ([13]; 8 g ai/ha Preemergence): 55
- Plant response rating (0 no effect, 100 complete control) Foxtail, Giant ([13]; 16 g ai/ha Preemergence): 73
- Plant response rating (0 no effect, 100 complete control) Foxtail, Giant ([13]; 31 g ai/ha Preemergence): 88
- Plant response rating (0 no effect, 100 complete control) Foxtail, Giant ([13]; 62 g ai/ha Preemergence): 95
- Plant response rating (0 no effect, 100 complete control) Foxtail, Giant ([13]; 125 g ai/ha Preemergence): 95
- Plant response rating (0 no effect, 100 complete control) Waterhemp ([14]; 4 g ai/ha Preemergence): 0
- Plant response rating (0 no effect, 100 complete control) Waterhemp ([14]; 8 g ai/ha Preemergence): 0
- Plant response rating (0 no effect, 100 complete control) Waterhemp ([14]; 16 g ai/ha Preemergence): 0
- Plant response rating (0 no effect, 100 complete control) Waterhemp ([14]; 31 g ai/ha Preemergence): 0
- Plant response rating (0 no effect, 100 complete control) Waterhemp ([14]; 62 g ai/ha Preemergence): 20
- Plant response rating (0 no effect, 100 complete control) Waterhemp ([14]; 125 g ai/ha Preemergence): 20
- Plant response rating (0 no effect, 100 complete control) Wheat ([15]; 16 g ai/ha Preemergence): 3
- Plant response rating (0 no effect, 100 complete control) Wheat ([15]; 31 g ai/ha Preemergence): 20
- Plant response rating (0 no effect, 100 complete control) Wheat ([15]; 62 g ai/ha Preemergence): 40
- Plant response rating (0 no effect, 100 complete control) Wheat ([15]; 125 g ai/ha Preemergence): 63
- Plant response rating (0 no effect, 100 complete control) Surinam Grass ([16]; 4 g ai/ha Preemergence): 30
- Plant response rating (0 no effect, 100 complete control) Surinam Grass ([16]; 8 g ai/ha Preemergence): 30
- Plant response rating (0 no effect, 100 complete control) Surinam Grass ([16]; 16 g ai/ha Preemergence): 58
- Plant response rating (0 no effect, 100 complete control) Surinam Grass ([16]; 31 g ai/ha Preemergence): 90
- Plant response rating (0 no effect, 100 complete control) Surinam Grass ([16]; 62 g ai/ha Preemergence): 89
- Plant response rating (0 no effect, 100 complete control) Surinam Grass ([16]; 125 g ai/ha Preemergence): 99
- Plant response rating (0 no effect, 100 complete control) Horseweed ([17]; 4 g ai/ha Preemergence): 0
- Plant response rating (0 no effect, 100 complete control) Horseweed ([17]; 8 g ai/ha Preemergence): 0
- Plant response rating (0 no effect, 100 complete control) Horseweed ([17]; 16 g ai/ha Preemergence): 0
- Plant response rating (0 no effect, 100 complete control) Horseweed ([17]; 31 g ai/ha Preemergence): 30
- Plant response rating (0 no effect, 100 complete control) Horseweed ([17]; 62 g ai/ha Preemergence): 45
- Plant response rating (0 no effect, 100 complete control) Horseweed ([17]; 125 g ai/ha Preemergence): 65
- Plant response rating (0 no effect, 100 complete control) Nightshade ([18]; 4 g ai/ha Preemergence): 0
- Plant response rating (0 no effect, 100 complete control) Nightshade ([18]; 8 g ai/ha Preemergence): 0
- Plant response rating (0 no effect, 100 complete control) Nightshade ([18]; 16 g ai/ha Preemergence): 0
- Plant response rating (0 no effect, 100 complete control) Nightshade ([18]; 31 g ai/ha Preemergence): 0
- Plant response rating (0 no effect, 100 complete control) Nightshade ([18]; 62 g ai/ha Preemergence): 0
- Plant response rating (0 no effect, 100 complete control) Nightshade ([18]; 125 g ai/ha Preemergence): 63
